According to patent US10538498B2, “1,3,4-oxadiazole sulfonamide derivative compounds as histone deacetylase 6 inhibitor, and the pharmaceutical composition comprising the same” (Chong Kun Dang Pharmaceutical Corp., priority 2015, dated 2020):

Molecular target: T1, human recombinant HDAC6 (Homo sapiens, UniProt Q9UBN7)
T1 construct: purchased Calbiochem 382180
T1 sequence (Q9UBN7 1-1215): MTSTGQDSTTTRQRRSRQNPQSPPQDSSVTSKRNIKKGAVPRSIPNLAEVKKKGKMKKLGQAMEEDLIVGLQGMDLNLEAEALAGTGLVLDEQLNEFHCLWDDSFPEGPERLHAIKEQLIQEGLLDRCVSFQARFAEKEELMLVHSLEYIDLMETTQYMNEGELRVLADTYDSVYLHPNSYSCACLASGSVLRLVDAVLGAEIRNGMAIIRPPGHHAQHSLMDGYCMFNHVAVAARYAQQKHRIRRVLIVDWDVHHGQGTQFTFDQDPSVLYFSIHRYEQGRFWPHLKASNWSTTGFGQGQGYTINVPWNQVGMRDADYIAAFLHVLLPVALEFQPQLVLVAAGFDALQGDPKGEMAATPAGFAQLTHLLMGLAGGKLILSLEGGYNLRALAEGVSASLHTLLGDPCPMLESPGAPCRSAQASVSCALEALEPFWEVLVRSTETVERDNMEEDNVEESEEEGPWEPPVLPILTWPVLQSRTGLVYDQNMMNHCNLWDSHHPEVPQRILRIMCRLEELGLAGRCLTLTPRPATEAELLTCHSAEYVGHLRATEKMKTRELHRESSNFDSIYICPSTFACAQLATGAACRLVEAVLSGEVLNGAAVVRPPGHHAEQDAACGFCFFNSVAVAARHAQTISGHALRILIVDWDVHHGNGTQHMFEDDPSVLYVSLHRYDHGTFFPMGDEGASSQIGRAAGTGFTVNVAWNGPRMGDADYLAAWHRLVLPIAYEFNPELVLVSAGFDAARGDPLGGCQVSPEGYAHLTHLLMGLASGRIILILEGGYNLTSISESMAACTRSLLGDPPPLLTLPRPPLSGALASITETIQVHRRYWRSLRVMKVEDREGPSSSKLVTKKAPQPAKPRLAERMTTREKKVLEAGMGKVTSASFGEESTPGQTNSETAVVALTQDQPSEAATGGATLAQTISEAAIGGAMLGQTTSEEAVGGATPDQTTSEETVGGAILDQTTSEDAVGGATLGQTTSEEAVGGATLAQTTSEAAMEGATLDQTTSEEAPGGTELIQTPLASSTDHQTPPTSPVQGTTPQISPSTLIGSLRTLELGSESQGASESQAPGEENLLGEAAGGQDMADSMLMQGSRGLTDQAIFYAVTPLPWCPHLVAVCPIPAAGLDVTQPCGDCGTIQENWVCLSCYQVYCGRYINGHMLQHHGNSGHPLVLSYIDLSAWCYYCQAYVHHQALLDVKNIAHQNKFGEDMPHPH
Experiment: HDAC6 enzyme activity inhibition assay (HDAC Fluorimetric Drug Discovery Kit)
Assay type: biochemical
Details: for HDAC6 selectivity (fold): HDAC1 vs HDAC6; for IC50: same protocol as the HDAC1 enzyme activity test
Procedure, shortened: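 Human recombinant enzyme, 0.3 μg, incubated with 10 μM Fluor de Lys-SIRT1 substrate and 5-fold compound dilutions at 30° C for 60 min. Developer II added for 30 min, then fluorescence read (Ex 360/Em 460). IC50 values derived from the fluorescence data.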

Row | Structure (SMILES) | HDAC6 selectivity (fold) | IC50 [nM]
1 | Cc1nccn1CCS(=O)(=O)N(Cc1ccc(-c2nnc(C(F)F)o2)cc1)c1ccccc1 [Compound 11806, N-(4-(5-(difluoromethyl)-1,3,4-oxadiazol-2-yl)benzyl)-2-(2-methyl-1H-imidazol-1-yl)-N-phenylethane-1-sulfonamide] | 4000 | 25
2 | Cc1cncn1CCS(=O)(=O)N(Cc1ccc(-c2nnc(C(F)F)o2)cc1)c1ccccc1 [Compound 11807, N-(4-(5-(difluoromethyl)-1,3,4-oxadiazol-2-yl)benzyl)-2-(5-methyl-1H-imidazol-1-yl)-N-phenylethane-1-sulfonamide] | 1584 | 63.1
3 | O=S(=O)(CCn1cnc(CO)c1)N(Cc1ccc(-c2nnc(C(F)F)o2)cc1)c1ccccc1 [Compound 11808, N-(4-(5-(difluoromethyl)-1,3,4-oxadiazol-2-yl)benzyl)-2-(4-(hydroxymethyl)-1H-imidazol-1-yl)-N-phenylethane-1-sulfonamide] | 2881 | 34.7
4 | O=S(=O)(CCn1cncn1)N(Cc1ccc(-c2nnc(C(F)F)o2)cc1)c1ccccc1 [Compound 11809, N-(4-(5-(difluoromethyl)-1,3,4-oxadiazol-2-yl)benzyl)-N-phenyl-2-(1H-1,2,4-triazol-1-yl)ethane-1-sulfonamide] | 3222 | 30.1
5 | O=S(=O)(CCN1CCC(CO)CC1)N(Cc1ccc(-c2nnc(C(F)F)o2)cc1)c1ccccc1 [Compound 11810, N-(4-(5-(difluoromethyl)-1,3,4-oxadiazol-2-yl)benzyl)-2-(4-(hydroxymethyl)piperidin-1-yl)-N-phenylethane-1-sulfonamide] | 2793 | 35.8
6 | O=S(=O)(CCN1CCCC(CO)C1)N(Cc1ccc(-c2nnc(C(F)F)o2)cc1)c1ccccc1 (centres unmarked) [Compound 11811, N-(4-(5-(difluoromethyl)-1,3,4-oxadiazol-2-yl)benzyl)-2-(3-(hydroxymethyl)piperidin-1-yl)-N-phenylethane-1-sulfonamide] | 2358 | 42.4
7 | NC(=O)[C@@H]1CCCN1CCS(=O)(=O)N(Cc1ccc(-c2nnc(C(F)F)o2)cc1)c1ccccc1 [Compound 11812, (S)-1-(2-(N-(4-(5-(difluoromethyl)-1,3,4-oxadiazol-2-yl)benzyl)-N-phenylsulfamoyl)ethyl)pyrrolidine-2-carboxamide] | 3039 | 32.9
8 | NC(=O)[C@H]1CCCN1CCS(=O)(=O)N(Cc1ccc(-c2nnc(C(F)F)o2)cc1)c1ccccc1 [Compound 11813, (R)-1-(2-(N-(4-(5-(difluoromethyl)-1,3,4-oxadiazol-2-yl)benzyl)-N-phenylsulfamoyl)ethyl)pyrrolidine-2-carboxamide] | 2932 | 34.1
9 | CC(C)(C)OC(=O)N1CC2(CCN(CCS(=O)(=O)N(Cc3ccc(-c4nnc(C(F)F)o4)cc3)c3ccccc3)CC2)C1 [Compound 11814, tert-butyl 7-(2-(N-(4-(5-(difluoromethyl)-1,3,4-oxadiazol-2-yl)benzyl)-N-phenylsulfamoyl)ethyl)-2,7-diazaspiro[3.5]nonane-2-carboxylate] | 88 | 1130
10 | O=S(=O)(CCN1CCC(F)(F)C1)N(Cc1ccc(-c2nnc(C(F)F)o2)cc1)c1ccccc1 [Compound 11815, N-(4-(5-(difluoromethyl)-1,3,4-oxadiazol-2-yl)benzyl)-2-(3,3-difluoropyrrolidin-1-yl)-N-phenylethane-1-sulfonamide] | 1326 | 75.4
11 | O=S(=O)(CCn1ccnc1)N(Cc1ccc(-c2nnc(C(F)F)o2)cc1)c1ccccc1 [Compound 11816, N-(4-(5-(difluoromethyl)-1,3,4-oxadiazol-2-yl)benzyl)-2-(1H-imidazol-1-yl)-N-phenylethane-1-sulfonamide] | 2695 | 37.1
12 | O=S(=O)(CCN1CCC[C@H](O)C1)N(Cc1ccc(-c2nnc(C(F)F)o2)cc1)c1ccccc1 [Compound 11817, (S)—N-(4-(5-(difluoromethyl)-1,3,4-oxadiazol-2-yl)benzyl)-2-(3-hydroxypiperidin-1-yl)-N-phenylethane-1-sulfonamide] | 1718 | 58.2
13 | N#CC1CCN(CCS(=O)(=O)N(Cc2ccc(-c3nnc(C(F)F)o3)cc2)c2ccccc2)CC1 [Compound 11818, 2-(4-cyanopiperidin-1-yl)-N-(4-(5-(difluoromethyl)-1,3,4-oxadiazol-2-yl)benzyl)-N-phenylethane-1-sulfonamide] | 1647 | 60.7
14 | O=S(=O)(CCN1CCC(c2ccc(F)cc2)CC1)N(Cc1ccc(-c2nnc(C(F)F)o2)cc1)c1ccccc1 [Compound 11819, N-(4-(5-(difluoromethyl)-1,3,4-oxadiazol-2-yl)benzyl)-2-(4-(4-fluorophenyl)piperidin-1-yl)-N-phenylethane-1-sulfonamide] | 284 | 351
15 | COC(=O)C1CN(CCS(=O)(=O)N(Cc2ccc(-c3nnc(C(F)F)o3)cc2)c2ccccc2)C1 [Compound 11820, methyl 1-(2-(N-(4-(5-(difluoromethyl)-1,3,4-oxadiazol-2-yl)benzyl)-N-phenylsulfamoyl)ethyl)azetidine-3-carboxylate] | 1652 | 60.5
16 | O=S(=O)(CCN1CC(F)(F)C1)N(Cc1ccc(-c2nnc(C(F)F)o2)cc1)c1ccccc1 [Compound 11821, 2-(3,3-difluoroazetidin-1-yl)-N-(4-(5-(difluoromethyl)-1,3,4-oxadiazol-2-yl)benzyl)-N-phenylethane-1-sulfonamide] | 747 | 134
17 | O=S(=O)(CCN1CCC(O)CC1)N(Cc1ccc(-c2nnc(C(F)F)o2)cc1)c1ccccc1 [Compound 11822, N-(4-(5-(difluoromethyl)-1,3,4-oxadiazol-2-yl)benzyl)-2-(4-hydroxypiperidin-1-yl)-N-phenylethane-1-sulfonamide] | 1365 | 73.3
18 | O=C(CO)N1CC(N2CCC(S(=O)(=O)N(Cc3ccc(-c4nnc(C(F)F)o4)cc3)c3cccc(Cl)c3)CC2)C1 [Compound 11836, N-(3-chlorophenyl)-N-(4-(5-(difluoromethyl)-1,3,4-oxadiazol-2-yl)benzyl)-1-(1-(2-hydroxyacetyl)azetidin-3-yl)piperidine-4-sulfonamide] | 3147 | 31.8
19 | Cc1cccc(N(Cc2ccc(-c3nnc(C(F)F)o3)cn2)S(=O)(=O)C2CCN(C3CN(C(C)C)C3)CC2)c1 [Compound 11837, N-((5-(5-(difluoromethyl)-1,3,4-oxadiazol-2-yl)pyridin-2-yl)methyl)-1-(1-isopropylazetidin-3-yl)-N-(m-tolyl)piperidine-4-sulfonamide] | 4167 | 24
20 | CC(=O)N1CC(N2CCC(S(=O)(=O)N(Cc3ccc(-c4nnc(C(F)F)o4)cn3)c3cccc(C)c3)CC2)C1 [Compound 11838, 1-(1-acetylazetidin-3-yl)-N-((5-(5-(difluoromethyl)-1,3,4-oxadiazol-2-yl)pyridin-2-yl)methyl)-N-(m-tolyl)piperidine-4-sulfonamide] | 2241 | 44.6
21 | Cc1cccc(N(Cc2ccc(-c3nnc(C(F)F)o3)cn2)S(=O)(=O)C2CCN(C3CN(C(=O)CO)C3)CC2)c1 [Compound 11839, N-((5-(5-(difluoromethyl)-1,3,4-oxadiazol-2-yl)pyridin-2-yl)methyl)-1-(1-(2-hydroxyacetyl)azetidin-3-yl)-N-(m-tolyl)piperidine-4-sulfonamide] | 2236 | 44.7
22 | O=S(=O)(C1CCN(C2CC(F)C2)CC1)N(Cc1ccc(-c2nnc(C(F)F)o2)cc1)c1cccc(Cl)c1 (centres unmarked) [Compound 11840, N-(3-chlorophenyl)-N-(4-(5-(difluoromethyl)-1,3,4-oxadiazol-2-yl)benzyl)-1-(3-fluorocyclobutyl)piperidine-4-sulfonamide] | 520 | 192
